Reference: ChEMBL document CHEMBL1201862, “PubChem BioAssay data set” (2004)
One block for each molecule: values may come before it. Calls of active or inactive are those of the source.

Legend:
[1] = reduction of Shn3 3'UTR firefly luciferase signal, dose response, Schnurri-3 inhibitor project, cell-based, Clone20 osteoblasts, cherry-pick, set 2 (AID 720490); format: functional;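 further: actives lower the luminescence signal as inhibitors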
[2] = inhibitors of control Renilla luciferase reporter, dose response, counter-screen for Shn3 3'UTR targeting project, Clone20-Shn3RL cells, dual-Glo, cherry-pick, set 2 (AID 720724); format: functional, cell-based; conditions: Dual-Go Shn3RL
[3] = control 3'UTR Renilla luciferase suppression, dose response, counter-screen for Shn3 inhibitor project, cell-based, Clone20-Shn3RL, cherry-picked (AID 624133); format: functional
[4] = Shn3 3'UTR reporter inhibitors, dose response, cell-based, Clone20 osteoblasts, firefly luciferase, cherry-picked (AID 624132); format: functional;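 further: firefly luciferase luminescence from reporter carrying the Shn3 3'UTR in osteoblasts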
[5] = target: ATP-dependent translocase ABCB1 (Homo sapiens, UniProt P08183); test: ABCB1 efflux inhibition concentration-response, dose response, Jurkat-DNR cells, JC-1, flow cytometry, follow-up (AID 489002); format: functional
Chain of ATP-dependent translocase ABCB1 (P08183 whole entry): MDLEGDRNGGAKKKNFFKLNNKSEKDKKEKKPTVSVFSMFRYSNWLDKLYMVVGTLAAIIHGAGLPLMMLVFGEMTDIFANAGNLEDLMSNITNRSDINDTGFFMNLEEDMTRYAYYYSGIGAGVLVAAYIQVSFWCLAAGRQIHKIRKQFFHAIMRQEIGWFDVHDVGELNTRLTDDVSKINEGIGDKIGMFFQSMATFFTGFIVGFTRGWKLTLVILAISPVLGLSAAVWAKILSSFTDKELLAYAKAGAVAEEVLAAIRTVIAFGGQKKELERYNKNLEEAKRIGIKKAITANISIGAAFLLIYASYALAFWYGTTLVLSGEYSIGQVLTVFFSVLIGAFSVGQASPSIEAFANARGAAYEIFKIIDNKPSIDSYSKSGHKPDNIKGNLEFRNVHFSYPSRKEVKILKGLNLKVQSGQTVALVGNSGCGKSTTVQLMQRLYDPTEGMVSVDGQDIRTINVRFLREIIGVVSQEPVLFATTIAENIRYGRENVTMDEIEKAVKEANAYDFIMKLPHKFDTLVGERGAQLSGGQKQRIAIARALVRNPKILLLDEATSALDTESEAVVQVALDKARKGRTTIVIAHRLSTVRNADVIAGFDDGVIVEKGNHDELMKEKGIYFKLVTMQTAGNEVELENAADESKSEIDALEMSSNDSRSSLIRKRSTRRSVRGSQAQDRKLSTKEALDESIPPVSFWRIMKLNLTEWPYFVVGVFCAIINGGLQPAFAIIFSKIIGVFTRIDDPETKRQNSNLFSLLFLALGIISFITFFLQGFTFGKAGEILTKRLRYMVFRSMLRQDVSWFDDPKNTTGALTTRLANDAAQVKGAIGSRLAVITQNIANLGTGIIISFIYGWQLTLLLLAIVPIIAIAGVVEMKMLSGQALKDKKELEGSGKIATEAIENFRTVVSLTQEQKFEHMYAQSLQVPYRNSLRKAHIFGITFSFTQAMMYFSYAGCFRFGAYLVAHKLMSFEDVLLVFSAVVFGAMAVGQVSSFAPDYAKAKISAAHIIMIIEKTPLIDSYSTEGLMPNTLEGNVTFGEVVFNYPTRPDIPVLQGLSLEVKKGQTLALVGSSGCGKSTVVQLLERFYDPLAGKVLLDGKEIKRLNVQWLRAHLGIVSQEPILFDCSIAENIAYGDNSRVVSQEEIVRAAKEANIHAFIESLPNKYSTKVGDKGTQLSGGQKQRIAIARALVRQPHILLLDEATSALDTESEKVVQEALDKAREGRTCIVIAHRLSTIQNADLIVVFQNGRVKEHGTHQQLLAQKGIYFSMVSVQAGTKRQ

[6] = cytotoxicity in OVCAR8 ovarian cancer cells, dose response, PAX8 project, cell-based, plate reader, dry powder samples (AID 743197); format: functional; conditions: OVCAR-8
Paired box protein Pax-8 = Paired box protein Pax-8 (Homo sapiens, UniProt Q06710); test: inhibitors of PAX8-driven TPO luciferase reporter, dose response, RMG-I cells, cherry-pick (AID 687027); format: functional, cell-based;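 further: luciferase reporter driven by Pax8 target thyroperoxidase promoter measured by SteadyGlo luminescence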
Chain of Paired box protein Pax-8 (Q06710 whole entry): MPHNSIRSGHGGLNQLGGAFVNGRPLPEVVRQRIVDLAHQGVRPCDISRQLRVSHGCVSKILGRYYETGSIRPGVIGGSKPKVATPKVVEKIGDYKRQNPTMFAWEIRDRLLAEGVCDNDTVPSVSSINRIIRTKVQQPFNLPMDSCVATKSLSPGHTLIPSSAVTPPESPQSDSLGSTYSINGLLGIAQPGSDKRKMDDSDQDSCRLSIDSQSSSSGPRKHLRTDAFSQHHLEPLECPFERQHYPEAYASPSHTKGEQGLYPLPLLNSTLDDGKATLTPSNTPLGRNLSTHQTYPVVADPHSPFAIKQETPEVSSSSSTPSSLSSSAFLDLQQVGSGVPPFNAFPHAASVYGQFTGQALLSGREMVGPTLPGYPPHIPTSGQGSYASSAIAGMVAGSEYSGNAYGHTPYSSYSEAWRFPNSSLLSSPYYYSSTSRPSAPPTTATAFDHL

[7] = PAX2 cell-based inhibition, dose response, selectivity assay for PAX8 inhibitor project, plate reader, dry powder samples (AID 743048); format: functional;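 further: HEK293 cells carrying a WT1 promoter luciferase reporter driven by expressed Pax2; potency is for inhibition of Pax2 driven reporter signal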
[8] = PAX5 activity inhibitors, dose response, selectivity assay for PAX8 inhibitor project, cell-based, plate reader, dry powder samples (AID 743047); format: functional;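 further: HEK293 cells carrying a Pax5 driven CD19 promoter luciferase reporter; potency of inhibitors that lower reporter luminescence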
[9] = non-specific cell cytotoxicity, dose response, cytotoxicity control for PAX8 inhibitor project, plate reader, dry powder samples (AID 743021); format: functional, cell-based
[10] = NIH:OVCAR-3 ovarian cancer cell cytotoxicity, dose response, PAX8 inhibitor project, plate reader, dry powder samples (AID 743044); format: functional, cell-based
[11] = cytotoxicity in COV434 cells, dose response, cytotoxicity control for PAX8 inhibitor project, cell-based, plate reader, dry powder, SA7 (AID 743145); format: functional
[12] = inhibitors of CMV-promoter luciferase reporter, dose response, counter-screen for Pax8 inhibitor project, cell-based, HEK293, luminescence, dry powder (AID 743020); format: functional
[13] = cytotoxicity dependent on PAX8, dose response, cell-based, plate reader, dry powder (AID 743049); format: functional
[14] = cytotoxicity in OVCAR4 cells, dose response, cytotoxicity control for PAX8 inhibitor project, cell-based, plate reader, dry powder, SA11 (AID 743150); format: functional; conditions: OVCAR-4
cells [15] = format: functional, cell-based
[16] = target: T1, Trace amine-associated receptor 1 (Homo sapiens, UniProt Q96RJ0); test: Counterscreen for agonists of the human trace amine associated receptor 1 (hTAAR1): Fluorescence-based cell-based high throughput dose response assay to identify hTAAR1 agonist that also desensitize TAAR1 receptor response.; format: functional
T1 sequence (Q96RJ0 whole entry): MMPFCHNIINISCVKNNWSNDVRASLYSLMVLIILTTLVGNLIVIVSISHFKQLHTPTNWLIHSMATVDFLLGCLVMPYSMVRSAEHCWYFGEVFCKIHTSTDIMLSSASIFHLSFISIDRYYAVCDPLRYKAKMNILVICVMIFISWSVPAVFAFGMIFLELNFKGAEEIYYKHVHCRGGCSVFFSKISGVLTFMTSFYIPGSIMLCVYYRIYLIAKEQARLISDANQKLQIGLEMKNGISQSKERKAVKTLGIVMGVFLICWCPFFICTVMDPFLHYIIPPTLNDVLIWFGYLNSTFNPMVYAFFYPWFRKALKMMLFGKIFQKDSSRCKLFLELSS

[17] = target: T1, Trace amine-associated receptor 1; test: Fluorescence-based cell-based high throughput dose response assay to identify agonists of the human trace amine associated receptor 1 (TAAR1).; format: functional
cells [18] = format: functional, cell-based; remark: listed apart in the source
Vero = test: Vero cell toxicity, dose response, cytotoxicity control, plate reader, cherry-pick samples (AID 687020); format: functional, cell-based; conditions: Chlorocebus sabaeus
[19] = target: Protein disulfide-isomerase (Homo sapiens, UniProt P07237); test: PDI inhibitors, insulin turbidity readout, confirmation, biochemical, dry powder samples, set 2 (AID 652146)
Chain of Protein disulfide-isomerase (P07237 whole entry): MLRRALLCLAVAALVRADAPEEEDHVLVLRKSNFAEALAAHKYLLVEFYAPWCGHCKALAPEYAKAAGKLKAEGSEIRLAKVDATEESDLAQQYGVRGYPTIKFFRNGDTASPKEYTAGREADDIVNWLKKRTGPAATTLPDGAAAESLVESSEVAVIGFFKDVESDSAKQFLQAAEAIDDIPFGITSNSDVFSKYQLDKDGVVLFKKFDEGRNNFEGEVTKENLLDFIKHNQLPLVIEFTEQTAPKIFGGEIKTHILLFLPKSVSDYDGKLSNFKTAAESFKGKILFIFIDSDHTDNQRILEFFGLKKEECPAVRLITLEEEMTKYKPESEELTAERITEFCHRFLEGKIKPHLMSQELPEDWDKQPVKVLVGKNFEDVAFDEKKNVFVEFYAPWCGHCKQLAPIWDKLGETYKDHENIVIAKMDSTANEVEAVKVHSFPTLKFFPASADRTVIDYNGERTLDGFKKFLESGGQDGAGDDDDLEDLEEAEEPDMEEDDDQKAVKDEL

[20] = target: Metabotropic glutamate receptor 5 (Rattus norvegicus, UniProt P31424); test: Identification of a glycine sulfonamide based non-MPEP site positive allosteric potentiator (PAM) of mGlu5 (calcium_assay).; format: functional
Chain of Metabotropic glutamate receptor 5 (P31424 whole entry): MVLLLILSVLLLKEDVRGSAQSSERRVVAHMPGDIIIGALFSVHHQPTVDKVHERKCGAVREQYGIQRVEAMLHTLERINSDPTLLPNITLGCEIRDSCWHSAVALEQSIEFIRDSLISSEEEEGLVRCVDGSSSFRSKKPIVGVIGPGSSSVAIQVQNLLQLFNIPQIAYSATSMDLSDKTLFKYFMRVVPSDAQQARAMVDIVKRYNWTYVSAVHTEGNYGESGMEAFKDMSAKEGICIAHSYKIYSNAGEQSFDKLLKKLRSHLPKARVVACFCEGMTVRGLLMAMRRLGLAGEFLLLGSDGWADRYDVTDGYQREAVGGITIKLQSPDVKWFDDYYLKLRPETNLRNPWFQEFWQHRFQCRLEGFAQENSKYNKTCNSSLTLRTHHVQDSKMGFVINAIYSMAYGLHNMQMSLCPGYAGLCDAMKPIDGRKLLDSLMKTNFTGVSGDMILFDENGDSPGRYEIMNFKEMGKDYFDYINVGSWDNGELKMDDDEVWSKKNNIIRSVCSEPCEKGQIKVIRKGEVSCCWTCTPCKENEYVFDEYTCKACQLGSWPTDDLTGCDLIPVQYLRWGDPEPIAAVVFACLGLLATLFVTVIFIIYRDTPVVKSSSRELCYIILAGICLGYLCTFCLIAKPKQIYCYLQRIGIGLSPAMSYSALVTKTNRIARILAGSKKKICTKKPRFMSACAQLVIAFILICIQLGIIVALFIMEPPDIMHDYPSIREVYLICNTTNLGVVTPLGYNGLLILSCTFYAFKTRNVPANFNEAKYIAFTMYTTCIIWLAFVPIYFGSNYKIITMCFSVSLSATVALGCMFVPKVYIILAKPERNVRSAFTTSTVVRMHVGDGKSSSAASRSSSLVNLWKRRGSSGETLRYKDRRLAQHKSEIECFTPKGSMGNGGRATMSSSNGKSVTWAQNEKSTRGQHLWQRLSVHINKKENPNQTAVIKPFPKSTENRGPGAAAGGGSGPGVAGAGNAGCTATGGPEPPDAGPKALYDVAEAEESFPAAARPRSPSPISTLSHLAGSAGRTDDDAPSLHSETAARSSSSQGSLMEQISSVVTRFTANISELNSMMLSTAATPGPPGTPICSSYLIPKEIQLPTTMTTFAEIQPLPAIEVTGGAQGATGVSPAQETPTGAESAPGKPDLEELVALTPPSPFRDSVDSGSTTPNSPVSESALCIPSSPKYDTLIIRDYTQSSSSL

[21] = HEK293T cytotoxicity, dose response, cytotoxicity control for miR-122 modulator project, cell-based, inhibitor set, cherry-pick, set 2 (AID 720697); format: functional
[22] = LGR2 antagonists, dose response, cell-based, HEK293, CRE-luciferase reporter, cherry pick (AID 743342); format: functional
[23] = MITF Orthogonal Assay: SK-MEL-5 CTG Assay Measured in Cell-Based System Using Plate Reader - 2084-02_Inhibitor_Dose_DryPowder_Activity_Set7.; format: functional
[24] = MITF: Counter assay: A375 proliferation Measured in Cell-Based System Using Plate Reader - 2084-03_Inhibitor_Dose_DryPowder_Activity_Set8.; format: functional; conditions: A-375
[25] = CFTR ΔF508 corrector activity in bronchial cells, dose response, human bronchial epithelial cells, plate reader, cherry-pick, two tests (AID 743267); format: functional, cell-based

SMILES: CCC(C)c1ccc(S(=O)(=O)N2CCN(C(=O)c3ccc(Cl)c(S(=O)(=O)N4CCOCC4)c3)CC2)cc1 (configuration not stated)
AC50 [1]: 6.16 µM (active)
AC50 [2]: 61.3 µM (active)
AC50 [3]: > 70 µM (inactive)
AC50 [4]: 5.32 µM (active)

EC50 [5]: 0.01411 µM
SMILES: Cc1ccc(-c2cc3nc(-c4ccco4)cc(N4CCN(Cc5ccoc5)CC4)n3n2)cc1

SMILES: Cc1ccc(S(=O)(=O)Nc2ccc3c(c2)C(=O)N([C@H](C)CO)C[C@@H](C)[C@H](CN(C)Cc2ccc(C(F)(F)F)cc2)OCCCC[C@H](C)O3)cc1
AC50 [6]: 14.9 µM (active)
AC50 (Paired box protein Pax-8): 3.93 µM (active)
AC50 [7]: 22 µM (active)
AC50 [8]: 22.1 µM (active)
AC50 [9]: 31 µM (active)
AC50 [10]: 27 µM (active)
AC50 [11]: 35.5 µM (active)
AC50 [12]: 29.4 µM (active)
AC50 [13]: 39.7 µM (active)
AC50 [14]: 44.2 µM (active)

SMILES: CC(C)[C@H](NC(=O)c1ccccc1)C(=O)N1CCC[C@H]1C(=O)NCCc1ccccc1Cl
EC50 (cells [15]): > 29.9 µM (inactive)
IC50 [16]: 1.2 µM (active)
EC50 [17]: 0.754 µM (active)
IC50 (cells [18]): > 29.9 µM (inactive)

SMILES: O=C(NCCN1CCCC1)[C@H]1N[C@H]2c3ccc(-c4ccccc4)c(=O)n3C[C@H]2[C@@H]1CO
AC50 (Vero): 23.1 µM (active)

AC50 [19]: > 30 µM (inactive)
SMILES: C=CCOc1ccc(CN2CCC(CCOc3ccccc3)(C(=O)N(C)CC)CC2)cc1Cl

EC50 [20]: 5.45 µM
SMILES: CC(C(=O)Nc1cc(F)cc(C#N)c1)N(c1ccccc1Cl)S(C)(=O)=O (configuration not stated)

SMILES: C[C@H](CO)N1C[C@H](C)[C@H](CN(C)S(=O)(=O)c2ccc(F)cc2)Oc2ccc(NS(C)(=O)=O)cc2C1=O
AC50 [21]: 1.19 µM (active)

SMILES: C[C@H](CO)N1C[C@H](C)[C@H](CN(C)C(=O)Nc2ccccc2)OCCCC[C@H](C)Oc2ccc(NC(=O)NC3CCCCC3)cc2C1=O
AC50 [22]: 12 µM (active)

SMILES: CC1=C(N)C(=O)c2ccccc2C1=O
AC50 [23]: 3.74 µM (active)
AC50 [24]: > 70 µM (inactive)

SMILES: COc1c(O[C@@H]2O[C@H](CO)[C@@H](O)[C@H](O)[C@H]2O)cc2c(c1OC)-c1ccc(SC)c(=O)cc1[C@@H](NC(C)=O)CC2 [THIOCOLCHICOSIDE]
AC50 [25]: 50 µM (active)
